Data reported in paper PMC9404985, “Development of Dicationic Bisguanidine-Arylfuran Derivatives as Potent Agents against Gram-Negative Bacteria” (Antibiotics, 2022).

Columns and labels:
[1] = Cytotoxicity assay (PrestoBlue) MCF-7; type: cell-based; settings: human, MCF-7 cells (breast cancer cell line), 24 h incubation
Protocol: (§1) The cytotoxicity levels of all compounds were evaluated against human Michigan Cancer Foundation-7 (MCF-7) and Hepatoma G2 cell line (HepG2) cell lines. MCF-7 is an extensively characterized breast cancer cell line isolated in 1970 [41], while HepG2 cells were derived from a hepatoma in 1975 [42]. Both cell lines grow robustly during in vitro culture and have been widely used for cytotoxicity testing. Cells of hepatic origin, such as HepG2, are of particular relevance for toxicity studies as many drugs accumulate in the liver during metabolic conversion. Cells were grown in Dulbecco’s Modified Eagle Medium supplemented with 10% fetal calf serum and kept in exponential growth, as previously reported. Before the assay, cells were reseeded into 96-well microtiter plates at a density allowing continued exponential growth and let to settle for 24 h. The compounds were added from a stock solution in DMSO, for a final concentration of 0.3% v/v of the solvent in the culture medium. After 24 h of incubation in presence of the compound, cell viability was assayed using PrestoBlue Cell Viability Reagent (resazurin-based solution, ThermoFisher, Waltham, MA, USA) according to the manufacturer’s instructions. […] Each assay contained a DMSO control at the equivalent starting concentration, positive control (uninhibited cell growth) and negative control (cell medium only). Survival was expressed as percentage of the solvent-only control. […] The Selectivity Index (SI) for each compound and bacterial strain was calculated as the ratio between the mean of the EC50 values for the two human cell lines and the EC50 for the bacterial strain in question ((EC50 MCF-7 + EC50 HepG2)/2)/EC50 bacterial strain).

[2] = Cytotoxicity assay (PrestoBlue) HepG2; type: cell-based; settings: human, HepG2 cells (hepatoma cell line), 24 h incubation
Protocol: as §1

[3] = tested on: K. pneumoniae (CCUG #225T); assay: Antibacterial activity against isolates (Omnilog, Biolog redox dye); type: cell-based, Klebsiella pneumoniae; settings: for EC50 / EC90: Klebsiella pneumoniae, ca-MH broth, 24 h, 37 °C; for Selectivity index K. pneumoniae (CCUG #225T): SI = ((EC50 MCF-7 + EC50 HepG2)/2)/EC50 bacterial strain
Protocol: (§2) The antibacterial activities of eight compounds (1, 3, 4, 6, 8, 10, 16, and 17) were tested against 10 different isolates of Gram-negative bacteria from human and other sources, two E. coli (CCUG #67180 and CCUG #17620/ATCC #25922, control strain), two K. pneumoniae (CCUG #58547 and CCUG #225T), two P. aeruginosa (CCUG #17619 and CCUG #59347), two A. baumannii (CCUG #57035 and CCUG #57250), E. cloacae (CCUG #6323T), and E. hormaechei (CCUG #58962) in a 96-well plate format. The compounds to test were 3-fold diluted in six steps in cation-adjusted Mueller-Hinton (ca-MH) broth to final concentrations spanning from 30 to 0.12 µM, i.e., a 1667–416,667 times dilution from the 50 mM stocks. Bacterial mass from the ten isolates grown overnight on horse blood or Mueller–Hinton agar plates was suspended in ca-MH and adjusted to a final inoculum cell density of ~5 × 10^5 CFU/mL. For all assays, Biolog redox dye A diluted 100× from the stock solution was used for measurements of all ten isolates (up to a total volume of 120 µL per well). All plates included one well per isolate with only inoculum and dye but no test compound (i.e., positive control) and one well per isolate with inoculum, dye and DMSO diluted 1667×, corresponding to the DMSO concentration in the wells with the highest concentration of test compound. All measurements were performed using the Omnilog microplate reader (Biolog, Hayward, CA, USA) where the 96-well plates were read at 15 min intervals for a total of 24 h at 37 °C.

[4] = tested on: P. aeruginosa (CCUG #59347); assay: as above; type: cell-based, Pseudomonas aeruginosa; settings: for EC50 / EC90: Pseudomonas aeruginosa, CCUG59347, ca-MH broth, 24 h, 37 °C; for Selectivity index P. aeruginosa (CCUG #59347): SI = ((EC50 MCF-7 + EC50 HepG2)/2)/EC50 bacterial strain
Protocol: as §2, with “The compounds to test were 3-fold diluted in six steps in cation-adjusted Mueller-Hinton (ca-MH) broth to final concentrations spanning from 30 to 0.12 µM, i.e., a 1667–416,667 times dilution from the 50 mM stocks.” left out

[5] = tested on: A. baumannii (CCUG #57035); assay: as above; type: cell-based, Acinetobacter baumannii; settings: for EC50 / EC90: Acinetobacter baumannii, CCUG57035, ca-MH broth, 24 h, 37 °C; for Selectivity index A. baumannii (CCUG #57035): SI = ((EC50 MCF-7 + EC50 HepG2)/2)/EC50 bacterial strain
Protocol: as §2, with “The compounds to test were 3-fold diluted in six steps in cation-adjusted Mueller-Hinton (ca-MH) broth to final concentrations spanning from 30 to 0.12 µM, i.e., a 1667–416,667 times dilution from the 50 mM stocks.” left out

[6] = tested on: A. baumannii (CCUG #57250); assay: as above; type: cell-based, Acinetobacter baumannii; settings: for EC90 / EC50: ca-MH broth, 24 h, 37 °C; for EC50: CCUG57250; for Selectivity index A. baumannii (CCUG #57250): SI = ((EC50 MCF-7 + EC50 HepG2)/2)/EC50 bacterial strain
Protocol: as §2

E. cloacae (CCUG #6323T) = assay: as above; type: cell-based, Enterobacter cloacae; settings: for EC50 / EC90: Enterobacter cloacae, ca-MH broth, 24 h, 37 °C; for Selectivity index E. cloacae (CCUG #6323T): SI = ((EC50 MCF-7 + EC50 HepG2)/2)/EC50 bacterial strain
Protocol: as §2

[7] = tested on: E. hormaechei (CCUG #58962); assay: as above; type: cell-based, Enterobacter hormaechei; settings: for EC50 / EC90: Enterobacter hormaechei, CCUG58962, ca-MH broth, 24 h, 37 °C; for Selectivity index E. hormaechei (CCUG #58962): SI = ((EC50 MCF-7 + EC50 HepG2)/2)/EC50 bacterial strain
Protocol: as §2, with “The compounds to test were 3-fold diluted in six steps in cation-adjusted Mueller-Hinton (ca-MH) broth to final concentrations spanning from 30 to 0.12 µM, i.e., a 1667–416,667 times dilution from the 50 mM stocks.” left out

[8] = tested on: E. coli MG1655 (CGSC #6300); assay: Antibacterial resazurin assay, laboratory strain; settings: for EC50 / EC90: Escherichia coli, MG1655, 18 h; for EC50: read-out: Eco EC50; for EC90: read-out: Eco EC90; for Selectivity index E. coli: mean of MCF-7 and HepG2 EC50 over bacterial EC50, laboratory strain
[9] = tested on: P. caledonica (NBRC/ATCC #102488); assay: Antibacterial resazurin assay, laboratory strain; settings: for EC50 / EC90: Paraburkholderia caledonica, ATCC102488, 18 h; for EC50: read-out: Pcal EC50; for EC90: read-out: Pcal EC90; for Selectivity index P. caledonica: mean of MCF-7 and HepG2 EC50 over bacterial EC50, laboratory strain
[10] = Acinetobacter baumannii, CCUG57250, 24 h

SMILES | EC50 at 24 h [1] | EC50 at 24 h [2] | EC50 [3] | EC90 [3] | EC50 [4] | EC90 [4] | EC50 [5] | EC90 [5] | EC90 [6, 10] | EC50 ([6]; Acinetobacter baumannii) | EC50 (E. cloacae (CCUG #6323T)) | EC90 (E. cloacae (CCUG #6323T)) | Selectivity index E. cloacae (CCUG #6323T) (E. cloacae (CCUG #6323T)) | EC50 [7] | EC90 [7] | EC50 [8] | EC90 [8] | Selectivity index E. coli [8] | EC50 [9] | EC90 [9] | further results
N=C(N)NCc1ccc(-c2ccc(-c3ccc(CNC(=N)N)cc3)o2)cc1 [Compound 10, 2,5-Bis(4-guanidinomethylphenyl)furan] | 48.6 µM | 137 µM | > 200 µM | > 200 µM | > 200 µM | > 200 µM | > 200 µM | > 200 µM | > 200 µM | > 200 µM | 12.4 µM | 24.7 µM | 7.5 | > 200 µM | > 200 µM | 73.2 µM | 108 µM | 1.3 | 2.9 µM | 5 µM | Selectivity index P. caledonica [9]: 31.8
N=C(N)Nc1ccc(-c2ccc(C(=O)N3CCc4cc(NC(=N)N)ccc43)o2)c(Cl)c1 [Compound 16, (5-(2-chloro-4-guanidinophenyl)furan-2-yl)(5-guanidinoindolin-1-yl)methanone] | 177 µM | 241 µM | 9.8 µM | 12.2 µM | 18.1 µM | 24 µM | 16.5 µM | 24.4 µM | 12.5 µM | 12.5 µM | 3.5 µM | 7.9 µM | 60.1 | 12.7 µM | 14.7 µM | 13.1 µM | 19 µM | 16.0 | 51.4 µM | 176 µM | Selectivity index K. pneumoniae (CCUG #225T) [3]: 21.4; Selectivity index P. aeruginosa (CCUG #59347) [4]: 11.5; Selectivity index A. baumannii (CCUG #57035) [5]: 12.7; Selectivity index A. baumannii (CCUG #57250) [6]: 16.7; Selectivity index E. hormaechei (CCUG #58962) [7]: 16.4; Selectivity index P. caledonica [9]: 4.1
Cc1cc(NC(=N)N)ccc1-c1ccc(-c2ccc(NC(=N)N)cc2C)o1 [Compound 4, 2,5-Bis(4-guanidino-2-methylphenyl)furan] | > 100 µM | 51.3 µM | 15.3 µM | 22.7 µM | 66.8 µM | 77 µM | 16 µM | 23.5 µM | 22.5 µM | 15.8 µM | 3.7 µM | 7.4 µM | 20.7 | 21.9 µM | 25.9 µM | 48.9 µM | 80.8 µM | 1.5 | 8.2 µM | 51.9 µM | Selectivity index K. pneumoniae (CCUG #225T) [3]: 4.9; Selectivity index P. aeruginosa (CCUG #59347) [4]: 1.1; Selectivity index A. baumannii (CCUG #57035) [5]: 4.7; Selectivity index A. baumannii (CCUG #57250) [6]: 4.8; Selectivity index E. hormaechei (CCUG #58962) [7]: 3.4; Selectivity index P. caledonica [9]: 9.2
N=C(N)Nc1ccc(-c2ccc(-c3ccc(NC(=N)N)cc3Cl)o2)c(Cl)c1 [Compound 1, 2,5-Bis(2-chloro-4-guanidinophenyl)furan] | 34.4 µM | 43.4 µM | 2.7 µM | 3.2 µM | 5.3 µM | 7.4 µM | 4.7 µM | 6.3 µM | 6.6 µM | 4.4 µM | 1 µM | 1.2 µM | 37.2 | 7.7 µM | 9.1 µM | 64.8 µM | 148 µM | 0.6 | 20.3 µM | 136 µM | Selectivity index K. pneumoniae (CCUG #225T) [3]: 14.4; Selectivity index P. aeruginosa (CCUG #59347) [4]: 7.3; Selectivity index A. baumannii (CCUG #57035) [5]: 8.3; Selectivity index A. baumannii (CCUG #57250) [6]: 8.7; Selectivity index E. hormaechei (CCUG #58962) [7]: 5.0; Selectivity index P. caledonica [9]: 1.9
N=C(N)Nc1ccc(-c2ccc(-c3ccc(NC(=N)N)cc3)o2)cc1 [Compound 3] | 64.5 µM | 185 µM | 2.8 µM | 3.1 µM | 5.2 µM | 8.1 µM | 1.6 µM | 2.4 µM | 2.4 µM | 1.7 µM | 1.5 µM | 2.5 µM | 83.1 | 7.6 µM | 9.1 µM | 80.4 µM | 174 µM | 1.5 | 4.5 µM | 18.9 µM | Selectivity index K. pneumoniae (CCUG #225T) [3]: 45.2; Selectivity index P. aeruginosa (CCUG #59347) [4]: 24.1; EC90 [6]: 2.3 µM; Selectivity index E. hormaechei (CCUG #58962) [7]: 16.4; Selectivity index P. caledonica [9]: 27.4
N=C(N)Nc1ccc(-c2ccc(C(=O)N3CCc4cc(NC(=N)N)ccc43)o2)cc1 [Compound 17, (5-(4-guanidinophenyl)furan-2-yl)(5-guanidinoindolin-1-yl)methanone] | 149 µM | 239 µM | > 200 µM | > 200 µM | 17 µM | 23.9 µM | 148 µM | > 200 µM | 90.3 µM | 61.8 µM | 5.6 µM | 8.6 µM | 34.8 | > 200 µM | > 200 µM | 1.7 µM | 4.3 µM | 114.3 | 72.5 µM | > 300 µM | Selectivity index P. aeruginosa (CCUG #59347) [4]: 11.4; Selectivity index A. baumannii (CCUG #57035) [5]: 1.3; Selectivity index A. baumannii (CCUG #57250) [6]: 3.1; Selectivity index P. caledonica [9]: 2.7
